In patent US20170152226A1, “FUNCTIONALISED AND SUBSTITUTED INDOLES AS ANTI-CANCER AGENTS” (Novogen Ltd., priority 2014, published 2017):
Read-outs that look alike come from different tables or passages of the source.

Key:
Assay in all cases: Anti-proliferative activity, cell-titre luminescent viability assay
Format in all cases: cell-based
[1] = tested on: MDA-MB-231; details: read-out: IC50 Breast MDA-MB-231
Protocol: (§1) The ability of compounds 3501-3540 and 3542-3545 to inhibit the proliferation of cancer cells representative of neuroblastoma, melanoma, prostate cancer, colorectal cancer, non-small cell lung carcinoma, and triple negative breast cancer was assessed. Briefly, a pre-determined number of cells as calculated from cell growth assays for each of the cell lines employed were seeded into their respective culture medium (using ATCC culture parameters—http://www.atcc.org) and cultured for 24 hours at 37° C. and 5% CO2 in 96-well culture plates. Once attached, each cell line was then exposed to increasing concentrations of each respective analogue (0.03, 0.3, 3 and 30 μM for compounds in Table 1; 0.1, 0.3, 1, 3, 10 and 30 μM for compounds in Table 2), cultured for a further 72 hours and exposed to cell-titre luminescent reagent (100 μL/well) for a further 30 min) to assess for cell viability. Luminescence was captured using an EnVision multilabel reader and the data for each analogue concentration was normalized, as a percentage, to the no treatment control. For compounds 3501, 3503, 3505-08, 3512-18, 3520, 3522-24 and 3531-36, semi-log plots of Percent of Control versus concentration were prepared and IC50 determined using linear regression analysis. For compounds 3502, 3504, 3509-11, 3519, 3521, 3525-30, 3537-40 and 3542-45, cell viability was normalized to control (vehicle alone) and dose-response curves, and half maximal effective concentration (EC50) values were determined using Graph Pad Prism 6 (nonlinear regression sigmoidal dose-response variable slope).

[2] = tested on: A549; details: read-out: IC50 Lung (NSLC) A549
Protocol: as §1

[3] = tested on: DU145; details: read-out: IC50 Prostate DU145
Protocol: as §1

[4] = tested on: CaCo2; details: read-out: IC50 Colorectal CaCo2
Protocol: as §1

[5] = tested on: SK-Mel-28; details: 72 hours, read-out: IC50 Melanoma SK-Mel-28
Protocol: as §1

[6] = tested on: PC3; details: read-out: IC50 Prostate PC3
Protocol: as §1

[7] = tested on: SK-N-SH; details: read-out: IC50 Neuroblastoma SK-N-SH
Protocol: as §1

[8] = 72 hours, 0.03, 0.3, 3 and 30 μM, linear regression of semi-log plots
[9] = Homo sapiens, MDA-MB-231, 72 h, 0.1, 0.3, 1, 3, 10 and 30 μM, nonlinear regression sigmoidal dose-response (EC50)
[10] = Homo sapiens, A549, 72 h, 0.1, 0.3, 1, 3, 10 and 30 μM, nonlinear regression sigmoidal dose-response (EC50)
[11] = Homo sapiens, DU-145, 72 h, 0.1, 0.3, 1, 3, 10 and 30 μM, nonlinear regression sigmoidal dose-response (EC50)
[12] = Homo sapiens, Caco-2, 72 h, 0.1, 0.3, 1, 3, 10 and 30 μM, nonlinear regression sigmoidal dose-response (EC50)
[13] = Homo sapiens, SK-MEL-28, 0.1, 0.3, 1, 3, 10 and 30 μM, nonlinear regression sigmoidal dose-response (EC50)
[14] = Homo sapiens, PC-3, 72 h, 0.1, 0.3, 1, 3, 10 and 30 μM, nonlinear regression sigmoidal dose-response (EC50)
[15] = Homo sapiens, SK-N-SH, 72 h, 0.1, 0.3, 1, 3, 10 and 30 μM, nonlinear regression sigmoidal dose-response (EC50)

Row | SMILES | IC50 [1, 9] | IC50 [2, 10] | IC50 [3, 11] | IC50 [4, 12] | IC50 [5, 13] | IC50 [6, 14] | IC50 [7, 15] | also measured
1 | COc1cccc(CCN2CCN(C(=O)c3ccc(Nc4ccc5c(c4)c(C)c(C)n5CCCN4CCN(C)CC4)cc3)CC2)c1 [Compound 3535, (4-((2,3-dimethyl-1-(3-(4-methylpiperazin-1-yl)propyl)-1H-indol-5-yl)amino)phenyl)(4-(3-methoxyphenethyl)piperazin-1-yl)methanone] | – | – | – | – | – | – | – | IC50 ([1]; Homo sapiens, MDA-MB-231, 72 h, 0.03, 0.3, 3 and 30 μM, linear regression of semi-log plots): 2.6 µM; IC50 ([2]; Homo sapiens, A549, 72 h, 0.03, 0.3, 3 and 30 μM, linear regression of semi-log plots): 2.7 µM; IC50 ([3]; Homo sapiens, DU-145, 72 h, 0.03, 0.3, 3 and 30 μM, linear regression of semi-log plots): 3.8 µM; IC50 ([4]; Homo sapiens, Caco-2, 72 h, 0.03, 0.3, 3 and 30 μM, linear regression of semi-log plots): 3 µM; IC50 ([5]; Homo sapiens, SK-MEL-28, 0.03, 0.3, 3 and 30 μM, linear regression of semi-log plots): 3.3 µM; IC50 ([6]; Homo sapiens, PC-3, 72 h, 0.03, 0.3, 3 and 30 μM, linear regression of semi-log plots): 3.7 µM; IC50 ([7]; Homo sapiens, SK-N-SH, 72 h, 0.03, 0.3, 3 and 30 μM, linear regression of semi-log plots): 2.8 µM
2 | COc1ccc(CCN2CCN(C(=O)c3ccc(Nc4ccc5c(c4)c(C)c(C)n5CCCN4CCN(C)CC4)cc3)CC2)cc1 [Compound 3536, (4-((2,3-dimethyl-1-(3-(4-methylpiperazin-1-yl)propyl)-1H-indol-5-yl)amino)phenyl)(4-(4-methoxyphenethyl)piperazin-1-yl)methanone] | – | – | – | – | – | – | – | IC50 [1, 8]: 2.5 µM; IC50 [2, 8]: 3.1 µM; IC50 [3, 8]: 3.6 µM; IC50 [4, 8]: 12.9 µM; IC50 ([5]; 0.03, 0.3, 3 and 30 μM, linear regression of semi-log plots): 2.7 µM; IC50 [6, 8]: 4.3 µM; IC50 [7, 8]: 2.9 µM
3 | COc1ccc2cccc(CCN3CCN(C(=O)c4cccc(Cc5ccc6c(c5)c(C)c(C)n6CCCN5CCN(C)CC5)c4)CC3)c2c1 [Compound 3540, (3-((2,3-dimethyl-1-(3-(4-methylpiperazin-1-yl)propyl)-1H-indol-5-yl)methyl)phenyl)(4-(2-(7-methoxynaphthalen-1-yl)ethyl)piperazin-1-yl)methanone] | 2.3 µM | 5 µM | 4.6 µM | 4 µM | 1.9 µM | 2.3 µM | 1.7 µM | –
4 | COc1ccc2cc(CCN3CCN(C(=O)c4ccc(Cc5ccc6c(c5)c(C)c(C)n6CCCN5CCN(C)CC5)cc4)CC3)ccc2c1 [Compound 3543, (4-((2,3-dimethyl-1-(3-(4-methylpiperazin-1-yl)propyl)-1H-indol-5-yl)methyl)phenyl)(4-(2-(6-methoxynaphthalen-2-yl)ethyl)piperazin-1-yl)methanone] | 1.3 µM | 1.5 µM | 1.7 µM | 1.5 µM | 2 µM | 1.8 µM | 1.6 µM | –
5 | Cc1c(C)n(CCCN2CCN(C)CC2)c2ccc(Cc3ccc(C(=O)N4CCN(CCc5cccc6ccccc56)CC4)cc3)cc12 [Compound 3544, (4-((2,3-dimethyl-1-(3-(4-methylpiperazin-1-yl)propyl)-1H-indol-5-yl)methyl)phenyl)(4-(2-(naphthalen-1-yl)ethyl)piperazin-1-yl)methanone] | 8.2 µM | 5.7 µM | 9 µM | 13.5 µM | 7.2 µM | 8.1 µM | 7 µM | –
6 | COc1ccc2cccc(CCN3CCN(C(=O)c4ccc(Cc5ccc6c(c5)c(C)c(C)n6CCCN5CCN(C)CC5)cc4)CC3)c2c1 [Compound 3545, (4-((2,3-dimethyl-1-(3-(4-methylpiperazin-1-yl)propyl)-1H-indol-5-yl)methyl)phenyl)(4-(2-(7-methoxynaphthalen-1-yl)ethyl)piperazin-1-yl)methanone] | 2.3 µM | 4.2 µM | 3.6 µM | 3.1 µM | 3.2 µM | 3 µM | 2.1 µM | –

Now from value to molecule, other results behind:

Row | IC50 [1, 9] | IC50 [2, 10] | IC50 [3, 11] | IC50 [4, 12] | IC50 [5, 13] | IC50 [6, 14] | IC50 [7, 15] | SMILES | also measured
7 | 4.8 µM | 3.6 µM | 5.8 µM | 5 µM | 4.8 µM | 8 µM | 4.2 µM | Cc1c(C)n(CCCN2CCN(C)CC2)c2ccc(Cc3cccc(C(=O)N4CCN(CCc5ccc6ccccc6c5)CC4)c3)cc12 [Compound 3537, (3-((2,3-dimethyl-1-(3-(4-methylpiperazin-1-yl)propyl)-1H-indol-5-yl)methyl)phenyl)(4-(2-(naphthalen-2-yl)ethyl)piperazin-1-yl)methanone] | –
8 | 2.8 µM | 3.9 µM | 3.9 µM | 4.6 µM | 2.2 µM | 3 µM | 1.7 µM | Cc1c(C)n(CCCN2CCN(C)CC2)c2ccc(Cc3cccc(C(=O)N4CCN(CCc5cccc6ccccc56)CC4)c3)cc12 [Compound 3539, (3-((2,3-dimethyl-1-(3-(4-methylpiperazin-1-yl)propyl)-1H-indol-5-yl)methyl)phenyl)(4-(2-(naphthalen-1-yl)ethyl)piperazin-1-yl)methanone] | –
9 | 2.8 µM | 3.1 µM | 3.9 µM | 3.9 µM | 1.4 µM | 3.6 µM | 1.6 µM | Cc1c(C)n(CCCN2CCN(C)CC2)c2ccc(Cc3ccc(C(=O)N4CCN(CCc5ccc6ccccc6c5)CC4)cc3)cc12 [Compound 3542, (4-((2,3-dimethyl-1-(3-(4-methylpiperazin-1-yl)propyl)-1H-indol-5-yl)methyl)phenyl) (4-(2-(naphthalen-2-yl)ethyl)piperazin-1-yl)methanone] | –
